Data from patent US20060057073A1, “Wet granulation process” (Pari GmbH, priority 2002, published 2006).

What was measured:
[1] = Bulk density according to Ph. Eur.; format: physicochemical
[2] = drug substance as free acid; cited from earlier work
[3] = Particle size by laser diffraction (Malvern MasterSizer 2000, dry dispersing); format: physicochemical; settings: mean diameter of the volume distribution; mean of three measurements
[4] = base; cited from earlier work

Aqueous solubility (Aqueous solubility)	Aqueous solubility (in words) (Aqueous solubility; in water)	SMILES	Bulk density [1]	intrinsic pH [2]	D50% (laser diffraction) [3]	pK [4]
<0.1%	nearly insoluble	C[C@H]1[C@H](NC(=O)/C(=N\OC(C)(C)C(=O)O)c2csc(N)n2)C(=O)N1S(=O)(=O)O [Aztreonam]	0.49 g/mL	about 1		
		COc1ccc(Cc2nccc3cc(OC)c(OC)cc23)cc1OC [papaverine]	0.41 g/mL		28.5 μm	8.07
